# Entries after “also recorded” stand apart in the source; their conditions may differ.
# Key:
# [1] = target: T1, B. anthracis DHPS (Bacillus anthracis, UniProt Q81VW8); experiment: biochemical; format: biochemical
# [2] = target: T1, B. anthracis DHPS; format: binding
# T1 sequence (Q81VW8 1-280): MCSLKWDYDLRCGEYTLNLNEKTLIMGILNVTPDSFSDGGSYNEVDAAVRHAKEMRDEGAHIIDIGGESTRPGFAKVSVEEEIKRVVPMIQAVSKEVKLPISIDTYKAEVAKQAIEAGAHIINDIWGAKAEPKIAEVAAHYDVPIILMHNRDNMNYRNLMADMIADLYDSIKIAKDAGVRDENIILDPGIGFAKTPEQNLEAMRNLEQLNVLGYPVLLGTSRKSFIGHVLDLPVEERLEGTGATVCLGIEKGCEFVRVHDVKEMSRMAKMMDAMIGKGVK
smiles,measurement,setting,value
Nc1nc2[nH]c(S)nc2c(=O)[nH]1 [Compound 5],percentage inhibition of DHPS,[1],did not show inhibition; also recorded: little or no inhibition
"Nc1nc2c(c(=O)[nH]1)N=C(CO)CN2 [Control, 6-hydroxymethyl-7,8-dihydropterin]",IC50,[1],58.4 µM
same,inhibition at 250 µM,[1]; read-out: B. anthracis % inhibition,60%
"Nc1ccc(C(=O)O)cc1 [pABA, p-aminobenzoic acid]",binding (heats of binding) by ITC,[2],does not bind; also recorded: No heats of binding could be detected
